Source: US20260022142A1, “MACROCYCLIC IMMUNOMODULATORS” (Bristol-Myers Squibb Company, priority 2022, published 2026)
Bridge positions count the residues as written; N and C are the ends. Square brackets hold non-standard residues; d marks the D form. Peptide text beside a SMILES is read from it. * marks the point of attachment. Phe(4-CONH2) = NC(=O)c1ccc(C[C@H](N)C(=O)O)cc1; Phe(4-COOH) = N[C@@H](Cc1ccc(C(=O)O)cc1)C(=O)O; Bip = N[C@@H](Cc1ccc(-c2ccccc2)cc1)C(=O)O; Phe(3-Me) = Cc1cccc(C[C@H](N)C(=O)O)c1; Cha = N[C@@H](CC1CCCCC1)C(=O)O; Cit = NC(=O)NCCC[C@H](N)C(=O)O; Carboxymethyl = O=C(O)C*; Orn = NCCC[C@H](N)C(=O)O; Aun = NCCCCCCCCCCC(=O)O; Dab = NCC[C@H](N)C(=O)O

Molecular target: T1, PD-1/PD-L1 interaction (PE-labeled human PD-L1-Ig binding to Jurkat cell line over-expressing human PD-1) (Homo sapiens, UniProt Q15116)
T1 construct: expressed in transfected cells; host or cells: Jurkat
Assay: Jurkat-PD-1 Cell Binding High-Content Screening Assay (CBA)
Type: cell-based
Details: Jurkat cell line over-expressing human PD-1; PE-labeled PD-L1-Ig 20 nM final; read-out: Jurkat hPD1-PDL1 IC50
How it was run: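 Binding of fluorescent PD-L1-Ig (phycoerythrin on Ig tag, 20 nM final, 1 h) measured by high-content imaging of fixed, Hoechst-counterstained Jurkat-hPD-1 cells. Compound added 2 h at 37° C beforehand, in DMEM with 10% fetal calf serum.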

T1 sequence (Q15116 25-288): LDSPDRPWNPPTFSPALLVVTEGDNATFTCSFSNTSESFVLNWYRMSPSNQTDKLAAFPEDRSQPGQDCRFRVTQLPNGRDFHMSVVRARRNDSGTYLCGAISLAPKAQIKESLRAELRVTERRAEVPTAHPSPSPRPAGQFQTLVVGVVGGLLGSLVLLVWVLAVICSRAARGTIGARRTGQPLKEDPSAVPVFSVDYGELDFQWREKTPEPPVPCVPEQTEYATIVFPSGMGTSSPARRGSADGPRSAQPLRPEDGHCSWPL

IC50 [nM]	Structure (SMILES)
201	Cc1cccc(C[C@@H]2NC(=O)[C@H](CC(=O)O)NC(=O)[C@H](Cc3ccc(OCC(=O)O)cc3)NC(=O)[C@H](Cc3ccccc3)NC(=O)CSC[C@@H](C(=O)N[C@@H](CCN)C(=O)NCCCCCCCCCCC(=O)O)NC(=O)[C@H]([C@@H](C)O)NC(=O)[C@H](C(C)C)NC(=O)[C@H](CC3CCCCC3)NC(=O)[C@H](CCN)NC(=O)[C@@H](CC(C)C)NC(=O)[C@H](CCCN)NC(=O)[C@H](CCCNC(N)=O)NC(=O)[C@H](Cc3ccc(-c4ccccc4)cc3)NC(=O)[C@H](C(C)C)NC2=O)c1 [Compound 2825] ({CH2CO}-FY(Carboxymethyl)D[Phe(3-Me)]V[Bip][Cit][Orn][dL][Dab][Cha]VTC[Dab][Aun]-OH; thioether N-14)
62.2	Cc1cccc(C[C@@H]2NC(=O)[C@H](CC(=O)O)NC(=O)[C@H](Cc3ccc(OCC(=O)O)cc3)NC(=O)[C@H](Cc3ccc(O)cc3)NC(=O)CSC[C@@H](C(=O)N[C@@H](CCN)C(=O)NCCCCCCCCCCC(=O)O)NC(=O)[C@H]([C@@H](C)O)NC(=O)[C@H](C(C)C)NC(=O)[C@H](CC3CCCCC3)NC(=O)[C@H](CCN)NC(=O)[C@@H](CC(C)C)NC(=O)[C@H](CCCN)NC(=O)[C@H](CCCNC(N)=O)NC(=O)[C@H](Cc3ccc(-c4ccccc4)cc3)NC(=O)[C@H](C(C)C)NC2=O)c1 [Compound 2826] ({CH2CO}-YY(Carboxymethyl)D[Phe(3-Me)]V[Bip][Cit][Orn][dL][Dab][Cha]VTC[Dab][Aun]-OH; thioether N-14)
13.1	Cc1cccc(C[C@@H]2NC(=O)[C@H](CC(=O)O)NC(=O)[C@H](Cc3ccc(OCC(=O)O)cc3)NC(=O)[C@H](Cc3ccc(C(N)=O)cc3)NC(=O)CSC[C@@H](C(=O)N[C@@H](CCN)C(=O)NCCCCCCCCCCC(=O)O)NC(=O)[C@H]([C@@H](C)O)NC(=O)[C@H](C(C)C)NC(=O)[C@H](CC3CCCCC3)NC(=O)[C@H](CCN)NC(=O)[C@@H](CC(C)C)NC(=O)[C@H](CCCN)NC(=O)[C@H](CCCNC(N)=O)NC(=O)[C@H](Cc3ccc(-c4ccccc4)cc3)NC(=O)[C@H](C(C)C)NC2=O)c1 [Compound 2827] ({CH2CO}-[Phe(4-CONH2)]Y(Carboxymethyl)D[Phe(3-Me)]V[Bip][Cit][Orn][dL][Dab][Cha]VTC[Dab][Aun]-OH; thioether N-14)
77.4	Cc1cccc(C[C@@H]2NC(=O)[C@H](CC(=O)O)NC(=O)[C@H](Cc3ccc(OCC(=O)O)cc3)NC(=O)[C@H](Cc3ccc(OCC(=O)O)cc3)NC(=O)CSC[C@@H](C(=O)N[C@@H](CCN)C(=O)NCCCCCCCCCCC(=O)O)NC(=O)[C@H]([C@@H](C)O)NC(=O)[C@H](C(C)C)NC(=O)[C@H](CC3CCCCC3)NC(=O)[C@H](CCN)NC(=O)[C@@H](CC(C)C)NC(=O)[C@H](CCCN)NC(=O)[C@H](CCCNC(N)=O)NC(=O)[C@H](Cc3ccc(-c4ccccc4)cc3)NC(=O)[C@H](C(C)C)NC2=O)c1 [Compound 2828] ({CH2CO}-Y(Carboxymethyl)Y(Carboxymethyl)D[Phe(3-Me)]V[Bip][Cit][Orn][dL][Dab][Cha]VTC[Dab][Aun]-OH; thioether N-14)
162	Cc1cccc(C[C@@H]2NC(=O)[C@H](CC(=O)O)NC(=O)[C@H](Cc3ccc(OCC(=O)O)cc3)NC(=O)[C@H](Cc3ccc(C(=O)O)cc3)NC(=O)CSC[C@@H](C(=O)N[C@@H](CCN)C(=O)NCCCCCCCCCCC(=O)O)NC(=O)[C@H]([C@@H](C)O)NC(=O)[C@H](C(C)C)NC(=O)[C@H](CC3CCCCC3)NC(=O)[C@H](CCN)NC(=O)[C@@H](CC(C)C)NC(=O)[C@H](CCCN)NC(=O)[C@H](CCCNC(N)=O)NC(=O)[C@H](Cc3ccc(-c4ccccc4)cc3)NC(=O)[C@H](C(C)C)NC2=O)c1 [Compound 2829] ({CH2CO}-[Phe(4-COOH)]Y(Carboxymethyl)D[Phe(3-Me)]V[Bip][Cit][Orn][dL][Dab][Cha]VTC[Dab][Aun]-OH; thioether N-14)

The remaining lines, values behind:

Structure (SMILES)	IC50 [nM]
CC(C)C[C@H]1NC(=O)[C@H](CCN)NC(=O)[C@H](Cc2ccc(O)cc2)NC(=O)[C@H](Cc2ccc(-c3ccccc3)cc2)NC(=O)[C@H](C(C)C)NC(=O)[C@H](Cc2c[nH]c3ccccc23)NC(=O)[C@H](CC(=O)O)NC(=O)[C@H](Cc2ccc(OCC(=O)O)cc2)NC(=O)[C@H](CCCNC(=N)N)NC(=O)CSC[C@@H](C(=O)N[C@@H](CCCN)C(=O)NCCCCCCCCCCC(=O)O)NC(=O)[C@@H](CCC(N)=O)NC(=O)[C@H](C(C)C)NC(=O)[C@H](CC2CCCCC2)NC(=O)[C@H](CCN)NC1=O [Compound 2817] ({CH2CO}-RY(Carboxymethyl)DWV[Bip]Y[Dab][dL][Dab][Cha]V[dQ]C[Orn][Aun]-OH; thioether N-14)	47.1
Cc1cccc(C[C@@H]2NC(=O)[C@H](CC(=O)O)NC(=O)[C@H](Cc3ccc(OCC(=O)O)cc3)NC(=O)[C@H](CCCNC(=N)N)NC(=O)CSC[C@@H](C(=O)N[C@@H](CCN)C(=O)NCCCCCCCCCCC(=O)O)NC(=O)[C@H](CCC(=O)O)NC(=O)[C@H](C(C)C)NC(=O)[C@H](CC3CCCCC3)NC(=O)[C@H](CCN)NC(=O)[C@@H](CC(C)C)NC(=O)[C@H](CCN)NC(=O)[C@H](Cc3ccc(O)cc3)NC(=O)[C@H](Cc3ccc(-c4ccccc4)cc3)NC(=O)[C@H](C(C)C)NC2=O)c1 [Compound 2818] ({CH2CO}-RY(Carboxymethyl)D[Phe(3-Me)]V[Bip]Y[Dab][dL][Dab][Cha]VEC[Dab][Aun]-OH; thioether N-14)	23.3
Cc1cccc(C[C@@H]2NC(=O)[C@H](CC(=O)O)NC(=O)[C@H](Cc3ccc(OCC(=O)O)cc3)NC(=O)[C@H](CCCNC(=N)N)NC(=O)CSC[C@@H](C(=O)N[C@@H](CCCN)C(=O)NCCCCCCCCCCC(=O)O)NC(=O)[C@H](CCC(=O)O)NC(=O)[C@H](C(C)C)NC(=O)[C@H](CC3CCCCC3)NC(=O)[C@H](CCN)NC(=O)[C@@H](CC(C)C)NC(=O)[C@H](CCN)NC(=O)[C@H](Cc3ccc(O)cc3)NC(=O)[C@H](Cc3ccc(-c4ccccc4)cc3)NC(=O)[C@H](C(C)C)NC2=O)c1 [Compound 2819] ({CH2CO}-RY(Carboxymethyl)D[Phe(3-Me)]V[Bip]Y[Dab][dL][Dab][Cha]VEC[Orn][Aun]-OH; thioether N-14)	21
Cc1cccc(C[C@@H]2NC(=O)[C@H](CC(=O)O)NC(=O)[C@H](Cc3ccc(OCC(=O)O)cc3)NC(=O)[C@H](CCCNC(=N)N)NC(=O)CSC[C@@H](C(=O)N[C@@H](CCN)C(=O)NCCCCCCCCCCC(=O)O)NC(=O)[C@@H](CCC(N)=O)NC(=O)[C@H](C(C)C)NC(=O)[C@H](CC3CCCCC3)NC(=O)[C@H](CCN)NC(=O)[C@@H](CC(C)C)NC(=O)[C@H](CCN)NC(=O)[C@H](CCCNC(N)=O)NC(=O)[C@H](Cc3ccc(-c4ccccc4)cc3)NC(=O)[C@H](C(C)C)NC2=O)c1 [Compound 2820] ({CH2CO}-RY(Carboxymethyl)D[Phe(3-Me)]V[Bip][Cit][Dab][dL][Dab][Cha]V[dQ]C[Dab][Aun]-OH; thioether N-14)	23.9
Cc1cccc(C[C@@H]2NC(=O)[C@H](CC(=O)O)NC(=O)[C@H](Cc3ccc(OCC(=O)O)cc3)NC(=O)[C@H](CCN)NC(=O)CSC[C@@H](C(=O)N[C@@H](CCN)C(=O)NCCCCCCCCCCC(=O)O)NC(=O)[C@H]([C@@H](C)O)NC(=O)[C@H](C(C)C)NC(=O)[C@H](CC3CCCCC3)NC(=O)[C@H](CCN)NC(=O)[C@@H](CC(C)C)NC(=O)[C@H](CCCN)NC(=O)[C@H](CCCNC(N)=O)NC(=O)[C@H](Cc3ccc(-c4ccccc4)cc3)NC(=O)[C@H](C(C)C)NC2=O)c1 [Compound 2821] ({CH2CO}-[Dab]Y(Carboxymethyl)D[Phe(3-Me)]V[Bip][Cit][Orn][dL][Dab][Cha]VTC[Dab][Aun]-OH; thioether N-14)	10.9
Cc1cccc(C[C@@H]2NC(=O)[C@H](CC(=O)O)NC(=O)[C@H](Cc3ccc(OCC(=O)O)cc3)NC(=O)[C@H](CCCN)NC(=O)CSC[C@@H](C(=O)N[C@@H](CCN)C(=O)NCCCCCCCCCCC(=O)O)NC(=O)[C@H]([C@@H](C)O)NC(=O)[C@H](C(C)C)NC(=O)[C@H](CC3CCCCC3)NC(=O)[C@H](CCN)NC(=O)[C@@H](CC(C)C)NC(=O)[C@H](CCCN)NC(=O)[C@H](CCCNC(N)=O)NC(=O)[C@H](Cc3ccc(-c4ccccc4)cc3)NC(=O)[C@H](C(C)C)NC2=O)c1 [Compound 2822] ({CH2CO}-[Orn]Y(Carboxymethyl)D[Phe(3-Me)]V[Bip][Cit][Orn][dL][Dab][Cha]VTC[Dab][Aun]-OH; thioether N-14)	21.9
Cc1cccc(C[C@@H]2NC(=O)[C@H](CC(=O)O)NC(=O)[C@H](Cc3ccc(OCC(=O)O)cc3)NC(=O)[C@H](CCCCN)NC(=O)CSC[C@@H](C(=O)N[C@@H](CCN)C(=O)NCCCCCCCCCCC(=O)O)NC(=O)[C@H]([C@@H](C)O)NC(=O)[C@H](C(C)C)NC(=O)[C@H](CC3CCCCC3)NC(=O)[C@H](CCN)NC(=O)[C@@H](CC(C)C)NC(=O)[C@H](CCCN)NC(=O)[C@H](CCCNC(N)=O)NC(=O)[C@H](Cc3ccc(-c4ccccc4)cc3)NC(=O)[C@H](C(C)C)NC2=O)c1 [Compound 2823] ({CH2CO}-KY(Carboxymethyl)D[Phe(3-Me)]V[Bip][Cit][Orn][dL][Dab][Cha]VTC[Dab][Aun]-OH; thioether N-14)	16.4
Cc1cccc(C[C@@H]2NC(=O)[C@H](CC(=O)O)NC(=O)[C@H](Cc3ccc(OCC(=O)O)cc3)NC(=O)[C@H](CCCNC(N)=O)NC(=O)CSC[C@@H](C(=O)N[C@@H](CCN)C(=O)NCCCCCCCCCCC(=O)O)NC(=O)[C@H]([C@@H](C)O)NC(=O)[C@H](C(C)C)NC(=O)[C@H](CC3CCCCC3)NC(=O)[C@H](CCN)NC(=O)[C@@H](CC(C)C)NC(=O)[C@H](CCCN)NC(=O)[C@H](CCCNC(N)=O)NC(=O)[C@H](Cc3ccc(-c4ccccc4)cc3)NC(=O)[C@H](C(C)C)NC2=O)c1 [Compound 2824] ({CH2CO}-[Cit]Y(Carboxymethyl)D[Phe(3-Me)]V[Bip][Cit][Orn][dL][Dab][Cha]VTC[Dab][Aun]-OH; thioether N-14)	25.5
